The structures appear in SMILES notation. Some results are limits rather than exact numbers.

The assay deals with DNA polymerase catalytic subunit (Human cytomegalovirus) (UniProt P08546). In words: Inhibitory activity against Human Cytomegalovirus (HCMV) polymerase.
Sequence of DNA polymerase catalytic subunit (Human cytomegalovirus) (P08546 whole entry, looked up): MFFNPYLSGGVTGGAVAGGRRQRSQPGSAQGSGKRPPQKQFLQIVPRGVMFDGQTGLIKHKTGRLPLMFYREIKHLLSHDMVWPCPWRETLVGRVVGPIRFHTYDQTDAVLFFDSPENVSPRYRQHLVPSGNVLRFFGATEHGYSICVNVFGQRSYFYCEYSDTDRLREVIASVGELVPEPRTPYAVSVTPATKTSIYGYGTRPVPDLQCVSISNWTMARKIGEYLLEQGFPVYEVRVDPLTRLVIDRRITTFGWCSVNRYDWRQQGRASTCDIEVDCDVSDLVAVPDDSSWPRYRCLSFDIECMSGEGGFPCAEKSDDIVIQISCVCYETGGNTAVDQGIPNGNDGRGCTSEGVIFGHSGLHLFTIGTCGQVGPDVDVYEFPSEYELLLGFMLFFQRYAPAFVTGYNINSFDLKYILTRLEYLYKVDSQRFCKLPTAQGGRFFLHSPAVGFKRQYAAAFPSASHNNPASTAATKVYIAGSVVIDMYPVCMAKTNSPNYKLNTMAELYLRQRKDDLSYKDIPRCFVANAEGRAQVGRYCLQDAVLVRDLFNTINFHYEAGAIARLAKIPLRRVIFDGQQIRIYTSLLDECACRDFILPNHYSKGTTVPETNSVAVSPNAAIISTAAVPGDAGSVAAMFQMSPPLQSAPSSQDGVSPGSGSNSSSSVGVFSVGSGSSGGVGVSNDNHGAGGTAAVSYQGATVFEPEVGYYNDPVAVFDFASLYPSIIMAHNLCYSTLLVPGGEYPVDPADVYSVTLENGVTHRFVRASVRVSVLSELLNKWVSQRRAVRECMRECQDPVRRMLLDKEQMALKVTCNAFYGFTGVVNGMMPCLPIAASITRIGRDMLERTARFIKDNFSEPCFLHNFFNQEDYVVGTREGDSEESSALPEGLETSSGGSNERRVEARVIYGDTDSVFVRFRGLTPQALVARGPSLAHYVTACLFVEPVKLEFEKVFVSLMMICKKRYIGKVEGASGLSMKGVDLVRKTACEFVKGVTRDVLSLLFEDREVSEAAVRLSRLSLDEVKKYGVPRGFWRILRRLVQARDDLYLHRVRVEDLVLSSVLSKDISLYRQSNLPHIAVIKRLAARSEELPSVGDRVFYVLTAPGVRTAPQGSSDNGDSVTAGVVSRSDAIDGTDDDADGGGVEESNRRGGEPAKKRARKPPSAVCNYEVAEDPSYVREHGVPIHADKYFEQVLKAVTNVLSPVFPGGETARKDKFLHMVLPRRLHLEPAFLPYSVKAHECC
The IC50 is the concentration that inhibits the measured activity by half. Low values mean greater potency, high ones weaker potency. Regarding `O=C(NCc1ccc(Cl)cc1)c1cc2ccccc2cc1O` [3-Hydroxy-naphthalene-2-carboxylic acid 4-chloro-benzylamide], the IC50 stood at 52 µM.
The value for `O=C(NCCc1ccc(Cl)cc1)c1cc2ccccc2cc1O` [3-Hydroxy-naphthalene-2-carboxylic acid [2-(4-chloro-phenyl)-ethyl]-amide] was over 100 µM.
Then `O=C(NCc1ccc(Cl)cc1)c1cc2cc(O)ccc2cc1O` [3,7-Dihydroxy-naphthalene-2-carboxylic acid 4-chloro-benzylamide], with 2.4 µM; and `O=C(NCc1ccc([N+](=O)[O-])cc1)c1ccc2ccccc2c1O` [1-Hydroxy-naphthalene-2-carboxylic acid 4-nitro-benzylamide], with 14.5 µM; and `O=C(Nc1cccc([N+](=O)[O-])c1)c1cc2ccccc2cc1O`, with 12 µM.
The value for `O=C(NCc1ccc([N+](=O)[O-])cc1)c1cc2cc(Br)ccc2c(Br)c1O` [4,7-Dibromo-3-hydroxy-naphthalene-2-carboxylic acid 4-nitro-benzylamide] was 2.9 µM; that for `O=C(Nc1cccnc1)c1cc2ccccc2cc1O` [3-Hydroxy-naphthalene-2-carboxylic acid pyridin-3-ylamide] was over 100 µM.
In the case of `O=C(NCc1ccc(Cl)cc1)c1ccc2ccccc2c1` [Naphthalene-2-carboxylic acid 4-chloro-benzylamide], the IC50 was over 100 µM.
Then `O=C(NCCc1ccc([N+](=O)[O-])cc1)c1cc2ccccc2cc1O` [3-Hydroxy-naphthalene-2-carboxylic acid [2-(4-nitro-phenyl)-ethyl]-amide], with over 100 µM; and `O=C(NCc1ccc([N+](=O)[O-])cc1)c1cc2ccccc2cc1O` [3-Hydroxy-naphthalene-2-carboxylic acid 4-nitro-benzylamide], with 12 µM.
The value for `O=C(Nc1ccc(Cl)cc1)c1cc2ccccc2cc1O` [3-Hydroxy-naphthalene-2-carboxylic acid (4-chloro-phenyl)-amide] was 69 µM; that for `O=C(Nc1ccc(Br)cc1)c1cc2ccccc2cc1O` [3-Hydroxy-naphthalene-2-carboxylic acid (4-bromo-phenyl)-amide] was 22 µM.
In turn, `COc1ccc2cc(O)c(C(=O)Nc3nc(-c4ccc(Cl)cc4)cs3)cc2c1` [3-Hydroxy-7-methoxy-naphthalene-2-carboxylic acid [4-(4-chloro-phenyl)-thiazol-2-yl]-amide] displayed an IC50 of 6 µM.
Compound `COc1cc2ccccc2cc1C(=O)NCc1ccc(Cl)cc1` [3-Methoxy-naphthalene-2-carboxylic acid 4-chloro-benzylamide] returned an IC50 of 8 µM.
The value for `O=C(Nc1ccc(Cl)cc1)c1ccc2ccccc2c1O` [1-Hydroxy-naphthalene-2-carboxylic acid (4-chloro-phenyl)-amide] was 37 µM; that for `O=C(Nc1ccccn1)c1cc2ccccc2cc1O` [3-Hydroxy-naphthalene-2-carboxylic acid pyridin-2-ylamide] was over 100 µM; that for `O=C(Nc1ccccc1)c1cc2ccccc2cc1O` [3-Hydroxy-naphthalene-2-carboxylic acid phenylamide] was over 100 µM.
Consider `O=C(Nc1ccc([N+](=O)[O-])cc1)c1cc2ccccc2cc1O` [3-Hydroxy-naphthalene-2-carboxylic acid (4-nitro-phenyl)-amide], for which the midpoint of inhibition, the IC50, lay at 22 µM.
Then `COc1ccc2cc(O)c(C(=O)NCc3ccc([N+](=O)[O-])cc3)cc2c1` [3-Hydroxy-7-methoxy-naphthalene-2-carboxylic acid 4-nitro-benzylamide], with 0.82 µM; and `N#Cc1ccc(NC(=O)c2cc3ccccc3cc2O)cc1` [3-Hydroxy-naphthalene-2-carboxylic acid (4-cyano-phenyl)-amide], with 19 µM.
Take `O=C(Nc1ccc([N+](=O)[O-])cc1)c1ccc2ccccc2c1` [Naphthalene-2-carboxylic acid (4-nitro-phenyl)-amide]: the IC50 is over 100 µM.
`O=C(NCc1ccc(Cl)cc1)c1cc2cccc(O)c2cc1O` [3,5-Dihydroxy-naphthalene-2-carboxylic acid 4-chloro-benzylamide] displayed an IC50 of 3.3 µM.
Then `COc1ccc2cc(O)c(C(=O)Nc3nc(-c4cccc([N+](=O)[O-])c4)cs3)cc2c1` [3-Hydroxy-7-methoxy-naphthalene-2-carboxylic acid [4-(3-nitro-phenyl)-thiazol-2-yl]-amide], with 2.4 µM; and `O=C(NCc1ccc([N+](=O)[O-])cc1)c1cc2cc(O)ccc2cc1O` [3,7-Dihydroxy-naphthalene-2-carboxylic acid 4-nitro-benzylamide], with 10.6 µM.
The value for `COc1ccc2cc(O)c(C(=O)NCc3ccc(Cl)cc3)cc2c1` [3-Hydroxy-7-methoxy-naphthalene-2-carboxylic acid 4-chloro-benzylamide] was 0.76 µM.
Compound `COc1ccc2cc(O)c(C(=O)Nc3nnc(Cc4ccc(Cl)cc4)s3)cc2c1` [3-Hydroxy-7-methoxy-naphthalene-2-carboxylic acid [5-(4-chloro-benzyl)-[1,3,4]thiadiazol-2-yl]-amide] came in with an IC50 of 4 µM.
With `O=C(NCc1ccc(Cl)cc1)c1ccc2ccccc2c1O` [1-Hydroxy-naphthalene-2-carboxylic acid 4-chloro-benzylamide], the IC50 stood at 13 µM.
Compound `COc1cc2ccccc2cc1C(=O)Nc1ccc([N+](=O)[O-])cc1` [3-Methoxy-naphthalene-2-carboxylic acid (4-nitro-phenyl)-amide] showed an IC50 of over 100 µM.
With `Nc1cccc(NC(=O)c2cc3ccccc3cc2O)c1` [3-Hydroxy-naphthalene-2-carboxylic acid (3-amino-phenyl)-amide], the IC50 is over 100 µM.
On to `COCOc1cc2ccccc2cc1C(=O)Nc1ccc([N+](=O)[O-])cc1` [3-Methoxymethoxy-naphthalene-2-carboxylic acid (4-nitro-phenyl)-amide], for which the 50% inhibitory concentration (IC50) was over 100 µM.
Compound `O=C(NCc1ccc([N+](=O)[O-])cc1)c1cc2cccc(O)c2cc1O` [3,5-Dihydroxy-naphthalene-2-carboxylic acid 4-nitro-benzylamide] registered an IC50 of 3.8 µM.
As for `COc1ccc2cc(O)c(C(=O)Nc3nc4c(Cl)cccc4s3)cc2c1` [3-Hydroxy-7-methoxy-naphthalene-2-carboxylic acid (4-chloro-benzothiazol-2-yl)-amide], the IC50 worked out at 6.4 µM.
In the case of `COc1ccc(NC(=O)c2cc3ccccc3cc2O)cc1`, the IC50 was determined as 56 µM.
`COc1ccc2cc(O)c(CNCc3ccc(Cl)cc3)cc2c1` [3-[(4-Chloro-benzylamino)-methyl]-6-methoxy-naphthalen-2-ol]: the IC50 is over 100 µM.
Then `COc1ccc2cc(O)c(C(=O)Nc3ncc(Cl)s3)cc2c1` [3-Hydroxy-7-methoxy-naphthalene-2-carboxylic acid (5-chloro-thiazol-2-yl)-amide], with 59 µM.

The values are drawn from BindingDB's records for doi:10.1016/s0960-894x(00)00402-9 (Pharmacia, 2000).
